# Test results as given in PMC8593400, “Effective Search of Triterpenes with Anti-HSV-1 Activity Using a Classification Model by Logistic Regression” (Frontiers in Chemistry, 2021).
# Entries after “also recorded” stand apart in the source; their conditions may differ. Read-outs that look alike come from different tables or passages of the source.
# Tests used:
# [1] = system: HSV-1 (HF strain: acyclovir-sensitive); assay: plaque reduction assay on Vero cells (anti-HSV-1 activity); format: cell-based, herpes simplex virus type 1; conditions: for IC50: 50% inhibitory concentration, plaque reduction
# Procedure: Antiviral effects against HSV-1 (HF strain: acyclovir-sensitive) were evaluated using a plaque reduction assay with some modifications as previously reported ([Ogawa et al., 2018]). The activity of all test compounds was measured at 25 μM, corresponding to the threshold of the prediction model. […] The protocol was performed follows.
# Vero cells were maintained in Dulbecco’s Modified Eagle Medium (DMEM) supplemented with 10% fetal calf serum (FBS). Vero cells (1.7–2.8 × 10^5 cells/well) were seeded onto a 12-well tissue culture plate and precultured for 1–2 days. The cells were inoculated with 100 plaque-forming units (PFU) of HSV-1 in 0.1 ml of FBS-free DMEM. After 30 min, the inoculum was removed. HSV-infected cells were maintained in DMEM containing 10% FBS, methylcellulose, and serially diluted test compounds. After 48 h of incubation at 37°C, the medium was removed. The cell sheets were stained with 1% crystal violet dissolved in 50% methanol, and the number of plaques larger than 0.4 mm was counted. HSV-1 replication causes cytopathic effects, resulting in plaque formation. The number and size of plaques reflected virus yields. To examine the effect of virus yield reduction, the total plaque number in cells untreated with the compound was defined as 100% and set as the control group. The significant difference of test compounds at 25 μM from the control group was calculated using the Student’s t-test. The significant difference of each concentration of 10–13 and 16 from the control group was calculated by Dunnett’s test. Probability (p) values less than 0.05 were considered to be significant (^* p < 0.05, ^** p < 0.01).
# [2] = cytotoxicity, CellTiter-Glo 3D cell viability assay; format: cell-based; conditions: African green monkey
# Procedure: (§1) All test compounds were evaluated their cytotoxicity by using CellTiter-Glo 3D® cell viability assay ([Matsumoto et al., 2020]). Briefly, Vero cells (3.0 × 10^3 cells/ well) were seeded in 96-well plates (96F Nunclon TM Delta Microwell SI; Thermo Fisher Scientific), and precultured for 24 h. The cells were treated with test compounds (10 μL/well). After 48 h, CellTiter-Glo® 3D Reagent (Promega, Madison, WI, United States) was added at 100 μL per well, mixed by shaking for 5 min at RT, and incubated for 25 min at 37°C. The cell-containing media were transferred to a 96-well white plate (96F Nunclon TM Delta White Microwell SI; Thermo Fisher Scientific). Luminescence was measured with a luminometer (FLUOstar OPTIMA®; BMG Labtech, Ortenberg, Germany).
# HSV-1 = conditions: cited from earlier work; for anti-HSV-1 activity previously reported: ref Rattanathongkom et al., 2009
# Vero cells = assay: cytotoxicity, CellTiter-Glo 3D cell viability assay; format: cell-based
# Procedure: as §1
# [3] = set-up: method as in Rattanathongkom et al., 2009; conditions: ref Rattanathongkom et al., 2009; cited from earlier work
# [4] = Human alphaherpesvirus 1, Vero, 48 h, 25 μM, plaque number vs untreated control, Vero cells, 48 h, read-out: Inhibitory rate (%) 25 μM
# [5] = Human alphaherpesvirus 1, Vero, Vero cells, read-out: IC50
# [6] = Human alphaherpesvirus 1, Vero, 48 h, 5 μM, plaque number vs untreated control, Vero cells, 48 h, read-out: Inhibitory rate (%) 5 μM
# [7] = Human alphaherpesvirus 1, Vero, 48 h, 10 μM, plaque number vs untreated control, Vero cells, 48 h, read-out: Inhibitory rate (%) 10 μM
# [8] = Human alphaherpesvirus 1, Vero, 48 h, read-out: Inhibitory rate (%) 25 μM, 25 μM, plaque number vs untreated control, Vero cells, 48 h
molecule,measurement,setting,value
"C[C@@H]1CC[C@]2(C(=O)O)CC[C@]3(C)C(=CC[C@@H]4[C@@]5(C)C[C@@H](O)[C@@H](O)C(C)(C)[C@@H]5CC[C@]43C)[C@@H]2[C@]1(C)O [Compound 1, Euscaphic acid]",inhibition at 25 µM,[1]; [4],0%
same,"viability at 48 h, 25 µM",[2]; Cell viability (%),117 ± 5.2%
"CC1(C)CC[C@]2(C(=O)O)CC[C@]3(C)C(=CCC4[C@@]5(C)C[C@H](O)[C@H](O)[C@@](C)(CO)C5CC[C@]43C)[C@@H]2C1 (some centres unmarked) [Compound 2, bayogenin]","viability at 48 h, 25 µM",[2]; Cell viability (%),117 ± 6.99%
"C=C1CCC2(C(=O)O)C(O)CC3(C)C(=CCC4C5(C)CCC(OC6OC(C(=O)O)C(O)C(O)C6O)C(C)(C)C5CCC43C)C2C1 (centres unmarked) [Compound 4, Pfaffiaglycoside B]",inhibition at 25 µM,[1]; [4],7.64 ± 10.7%
same,"viability at 48 h, 25 µM",[2]; Cell viability (%),108 ± 4.17%
"CC1(C)C(=O)CC[C@@]2(C)C1CC[C@]1(C)C2CC=C2[C@@H]3C[C@](C)(C(=O)O)CC[C@]3(C(=O)O)CC[C@]21C (stereo partly drawn) [Compound 5, (20α)-3-oxoolean-12-ene-28,29-dioic acid]","viability at 48 h, 25 µM",[2]; Cell viability (%),122 ± 5.6%
"C=C1CC[C@]2(C(=O)O)[C@@H](O)C[C@]3(C)C(=CC[C@@H]4[C@@]5(C)CC[C@H](O)C(C)(C)[C@@H]5CC[C@]43C)[C@@H]2C1 [Compound 6, pfaffianol A]",inhibition at 25 µM,[1]; [4],12.4 ± 16.9%
same,"viability at 48 h, 25 µM",[2]; Cell viability (%),122 ± 6.84%
"CC(C)[C@@H](O)C[C@@H](O)[C@](C)(O)[C@H]1CC[C@@]2(O)C3=CC(=O)[C@@H]4C[C@@H](O)[C@@H](O)C[C@]4(C)[C@H]3CC[C@]12C [Compound 7, pterosterone]","viability at 48 h, 25 µM",[2]; Cell viability (%),115 ± 3.95%
"CC(C)(O)CCC[C@](C)(O)[C@H]1CC[C@@]2(O)C3=CC(=O)[C@@H]4C[C@@H](O)[C@@H](O)C[C@]4(C)C3CC[C@]12C (some centres unmarked) [Compound 8, taxisterone]","viability at 48 h, 25 µM",[2]; Cell viability (%),122 ± 4.78%
"C[C@]12C[C@H](O)[C@H](O)C[C@H]1C(=O)C=C1[C@@H]2CC[C@]2(C)[C@@H](O)CC[C@@]12O [Compound 9, 2β,3β,14α,17β-tetrahydroxy-5β-androst-7-en-6-one]","viability at 48 h, 25 µM",[2]; Cell viability (%),106 ± 3.86%
"CC1(C)CCC2(C(=O)O)CCC3(C)C(=CCC4C5(C)CCC(OC6OC(C(=O)O)C(O)C(O)C6O)C(C)(C)C5CCC43C)C2C1 [Compound 10, oleanolic acid 3-O-β-D-glucuronopyranoside]",anti-HSV-1 activity in words (significance vs control),[1]; 25 μM,significant activity
same,IC50,"[1]; Vero cells, read-out: IC50",14.1 µM
same,IC50,[1]; [5],< 25 µM
same,inhibition at 5 µM,[1]; [6],5.85 ± 8.4%
same,inhibition at 10 µM,[1]; [7],27.5 ± 8.92%
same,inhibition at 25 µM,[1]; [4],83.3 ± 41.1%
same,anti-HSV-1 activity previously reported,HSV-1,did not show any anti-HSV-1 activity
same,cytotoxicity in words,Vero cells,showed cytotoxicity
same,Cell viability (%),"Vero cells; African green monkey, 48 h, 10 µM",104.0 ± 9.28%
same,"viability at 48 h, 10 µM",[2]; Cell viability (%),104 ± 9.28%
same,"viability at 48 h, 25 µM",[2]; Cell viability (%),14.6%
same,"viability at 48 h, 50 µM",[2]; Cell viability (%),1.47 ± 0.54%
same,cytotoxicity previously reported,[3],cytotoxicity
"CC1(C)CC[C@]2(C(=O)O[C@@H]3O[C@H](CO)[C@@H](O)[C@H](O)[C@H]3O)CC[C@]3(C)C(=CC[C@@H]4[C@@]5(C)CC[C@H](O[C@@H]6O[C@H](C(=O)O)[C@@H](O)[C@H](O)[C@H]6O)C(C)(C)[C@@H]5CC[C@]43C)[C@@H]2C1 [Compound 11, chikusetsusaponin IVa]",anti-HSV-1 activity in words (significance vs control),[1]; 25 μM,significant activity
same,Inhibitory rate (%) 25 μM,"[1]; 25 μM, plaque number vs untreated control, Vero cells, 48 h, 25 µM",51.82 ± 9.61^** %
same,IC50,[1]; Vero cells,13.1 µM
same,IC50,"[1]; Human alphaherpesvirus 1, Vero, Vero cells",< 25 µM
same,inhibition at 5 µM,"[1]; Human alphaherpesvirus 1, Vero, 48 h, read-out: Inhibitory rate (%) 5 μM, 5 μM, plaque number vs untreated control, Vero cells, 48 h",14.6 ± 15%
same,inhibition at 10 µM,"[1]; Human alphaherpesvirus 1, Vero, 48 h, read-out: Inhibitory rate (%) 10 μM, 10 μM, plaque number vs untreated control, Vero cells, 48 h",36.8 ± 17.4%
same,inhibition at 25 µM,[1]; [8],51.8 ± 9.61%
same,anti-HSV-1 activity previously reported,HSV-1,exhibit anti-HSV-1 activity
same,"viability at 48 h, 25 µM",[2]; Cell viability (%),112 ± 4.45%
same,"viability at 48 h, 50 µM",[2]; Cell viability (%),113 ± 6.08%
"C=C1CCC2(C(=O)OC3OC(CO)C(O)C(O)C3O)CCC3(C)C(=CCC4C5(C)CCC(OC6OC(C(=O)O)C(O)C(O)C6O)C(C)(C)C5CCC43C)C2C1 (centres unmarked) [Compound 12, boussingoside A2]",anti-HSV-1 activity in words (significance vs control),[1]; 25 μM,significant activity; also recorded: moderate anti-HSV-1 activity
same,inhibition at 5 µM,[1]; [6],4.42 ± 8.12%
same,inhibition at 10 µM,[1]; [7],2.77 ± 11.6%
same,inhibition at 25 µM,[1]; [4],24.7 ± 10.2%
same,cytotoxicity in words,Vero cells,no cytotoxicity
same,"viability at 48 h, 25 µM",[2]; Cell viability (%),112 ± 6.79%
same,"viability at 48 h, 50 µM",[2]; Cell viability (%),111 ± 9.73%
"CC(C)(O)CCC(=O)[C@](C)(O)[C@H]1CC[C@@]2(O)C3=CC(=O)[C@@H]4C[C@@H](O)[C@@H](O)C[C@]4(C)C3CC[C@]12C (some centres unmarked) [Compound 15, 22-oxo-20-hydroxyecdysone]","viability at 48 h, 25 µM",[2]; Cell viability (%),115 ± 3.93%
"CC(C)C(C)CCC(C)C1CCC2C1(C)CCC1C23C=CC2(CC(O)CCC12C)OO3 (stereo not drawn) [Compound 16, 5α,8α-epidioxyergosta-3β-ol]",anti-HSV-1 activity in words (significance vs control),[1]; 25 μM,significant activity
same,inhibition at 5 µM,[1]; [6],-2.49 ± 8.74%
same,inhibition at 10 µM,[1]; [7],0%
same,inhibition at 25 µM,[1]; [4],27.2 ± 5.52%
same,"viability at 48 h, 25 µM",[2]; Cell viability (%),130 ± 6.83%
same,"viability at 48 h, 50 µM",[2]; Cell viability (%),2.96 ± 1.77%
"C[C@@H](C1CC[C@@]2(C)C3=C(CC[C@]12C)[C@@]1(C)CC[C@H](O)C(C)(C)C1CC3)[C@H](O)/C=C/C(C)(C)OO (stereo partly drawn) [Compound 17, 3β,22R-Dihydroxylanosta-8,23E-diene-25-peroxide]","viability at 48 h, 25 µM",[2]; Cell viability (%),16.8%
"CC(C)=CCC[C@@H](C=O)[C@H]1CC[C@@]2(C)C3=C(CC[C@]12C)[C@@]1(C)CC[C@H](O)C(C)(C)[C@@H]1CC3 [Compound 18, 3β-hydroxylanosta-8,24-dien-21-al]",inhibition at 25 µM,[1]; [4],1.24 ± 3.8%
same,"viability at 48 h, 25 µM",[2]; Cell viability (%),113 ± 4.93%
"CC(C)=CCC[C@@H](C)[C@H]1CC[C@@]2(C)C3=C(CC[C@]12C)[C@@]1(C)CC[C@H](O)C(C)(C)[C@@H]1CC3 [Compound 19, lanosterol]",inhibition at 25 µM,[1]; [8],20.4 ± 8.49%
same,"viability at 48 h, 25 µM","[2]; Vero cells, 25 μM, Vero cells, 48 h, read-out: Cell viability (%)",101 ± 4.72%
"C[C@H](C/C=C/C(C)(C)OO)C1CC[C@@]2(C)C3=C(CC[C@]12C)[C@@]1(C)CC[C@H](O)C(C)(C)C1CC3 (stereo partly drawn) [Compound 20, (3β,23E)-25-hydroperoxylanosta-8,23-dien-3-ol]",inhibition at 25 µM,[1]; [4],19 ± 9.25%
"Nc1nc2c(ncn2COCCO)c(=O)[nH]1 [acyclovir, reference compound]",IC50,[1]; [5],3.08 µM
same,inhibition at 2.5 µM,"[1]; Human alphaherpesvirus 1, Vero, 48 h, 2.5 μM, plaque number vs untreated control, Vero cells, 48 h, read-out: Inhibitory rate (%) 2.5 μM",57.5 ± 11.9%
same,inhibition at 10 µM,[1]; [7],96 ± 11.8%
same,"viability at 48 h, 10 µM","[2]; Vero cells, 10 μM, Vero cells, 48 h, read-out: Cell viability (%)",103 ± 13.8%
"CC1(C)CC[C@]2(C(=O)O)CC[C@]3(C)C(=CC[C@@H]4[C@@]5(C)CC[C@H](O)C(C)(C)[C@@H]5CC[C@]43C)[C@@H]2C1 [oleanolic acid, reference compound]",inhibition at 5 µM,[1]; [6],9.02 ± 4.22%
same,inhibition at 25 µM,[1]; [4],21.4 ± 11.6%
cucurbitacin B [reference compound],anti-HSV-1 activity,"HSV-1; ref Hassan et al., 2017",strong anti-HSV-1 activity
same,selectivity index,"HSV-1; ref Hassan et al., 2017",high
